Measurements published in the supplement of paper PMC10307832.

Assays:
Experiment in all cases: relative viability (nuclei count vs DMSO), 5 days (fraction); higher = more cells survive
EMC-BAC-2 = tested on: EMC-BAC-2
In short: (§1)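 Cells from lung cancer lines were seeded into 1536-well plates and, one day later, dosed by pin tool. Treatments were either a single drug or a fixed dose of an anchor drug with five library-drug doses (not always all listed) in √10 steps. After 5 days, nuclei were stained in a one-step fixation (final 0.05% Triton X-100, 1% formaldehyde, 1 ug/ml Hoechst) and counted on 4× images, and relative viability is the treated-to-vehicle nuclei ratio, as the median of duplicate plates.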

EPLC-272H = tested on: EPLC-272H
In short: as §1

H3255 = tested on: H3255
In short: as §1

HOP-62 = tested on: HOP-62
In short: as §1

LCLC-97TM1 = tested on: LCLC-97TM1
In short: as §1

LXF-289 = tested on: LXF-289
In short: as §1

NCI-H1563 = tested on: NCI-H1563
In short: as §1

NCI-H1734 = tested on: NCI-H1734
In short: as §1

NCI-H1915 = tested on: NCI-H1915
In short: as §1

NCI-H1993 = tested on: NCI-H1993
In short: as §1

NCI-H2009 = tested on: NCI-H2009
In short: as §1

NCI-H2023 = tested on: NCI-H2023
In short: as §1

NCI-H2085 = tested on: NCI-H2085
In short: as §1

NCI-H2126 = tested on: NCI-H2126
In short: as §1

NCI-H2347 = tested on: NCI-H2347
In short: as §1

NCI-H322M = tested on: NCI-H322M
In short: as §1

NCI-H647 = tested on: NCI-H647
In short: as §1

NCI-H661 = tested on: NCI-H661
In short: as §1

NCI-H727 = tested on: NCI-H727
In short: as §1

PC-14 = tested on: PC-14
In short: as §1

SK-LU-1 = tested on: SK-LU-1
In short: as §1

SW 1573 = tested on: SW 1573
In short: as §1

For `O=c1cc(-c2cccc3c2Sc2ccccc2S3)oc(N2CCOCC2)c1` + CCNC(=O)c1noc(-c2cc(C(C)C)c(O)cc2O)c1-c1ccc(CN2CCOCC2)cc1 [Luminespib] (partner 0.01 µM), which relative viability (EMC-BAC-2; first compound 0.08 µM) is on record?
The relative viability was 1.16.

And the relative viability (EMC-BAC-2; first compound 0.253 µM)?
Its relative viability is 1.31.

And the relative viability (EMC-BAC-2; first compound 0.8 µM)?
The relative viability was 1.13.

And the relative viability (EMC-BAC-2; first compound 2.53 µM)?
The relative viability was 1.18.

What about the relative viability (EMC-BAC-2; first compound 8 µM) of the same compound?
Its relative viability is 1.27.

What about the relative viability (EPLC-272H; first compound 0.08 µM) of the same compound?
The relative viability was 0.182.

What about the relative viability (EPLC-272H; first compound 0.253 µM) of the same compound?
Its relative viability is 0.405.

What about the relative viability (EPLC-272H; first compound 0.8 µM) of the same compound?
Its relative viability is 0.431.

What about the relative viability (EPLC-272H; first compound 2.53 µM) of the same compound?
The relative viability was 0.146.

What about the relative viability (EPLC-272H; first compound 8 µM) of the same compound?
The relative viability was 0.292.

What about the relative viability (H3255; first compound 0.08 µM) of the same compound?
Its relative viability is 0.758.

And the relative viability (H3255; first compound 0.253 µM)?
Its relative viability is 0.943.

And the relative viability (H3255; first compound 0.8 µM)?
The relative viability was 0.84.

What about the relative viability (H3255; first compound 2.53 µM) of the same compound?
Its relative viability is 0.884.

And the relative viability (H3255; first compound 8 µM)?
The relative viability was 0.955.

What about the relative viability (HOP-62; first compound 0.08 µM) of the same compound?
Its relative viability is 1.06.

What about the relative viability (HOP-62; first compound 0.253 µM) of the same compound?
The relative viability was 1.04.

And the relative viability (HOP-62; first compound 0.8 µM)?
The relative viability was 1.03.

And the relative viability (HOP-62; first compound 2.53 µM)?
The relative viability was 0.983.

And the relative viability (HOP-62; first compound 8 µM)?
The relative viability was 1.02.

What about the relative viability (LCLC-97TM1; first compound 0.08 µM) of the same compound?
Its relative viability is 0.815.

What about the relative viability (LCLC-97TM1; first compound 0.253 µM) of the same compound?
Its relative viability is 0.733.

What about the relative viability (LCLC-97TM1; first compound 0.8 µM) of the same compound?
The relative viability was 0.807.

What about the relative viability (LCLC-97TM1; first compound 2.53 µM) of the same compound?
The relative viability was 0.71.

And the relative viability (LCLC-97TM1; first compound 8 µM)?
Its relative viability is 0.708.

What about the relative viability (LXF-289; first compound 0.08 µM) of the same compound?
Its relative viability is 0.607.

What about the relative viability (LXF-289; first compound 0.253 µM) of the same compound?
The relative viability was 0.764.

And the relative viability (LXF-289; first compound 0.8 µM)?
Its relative viability is 0.636.

What about the relative viability (LXF-289; first compound 2.53 µM) of the same compound?
Its relative viability is 0.69.

And the relative viability (LXF-289; first compound 8 µM)?
Its relative viability is 0.765.

What about the relative viability (NCI-H1563; first compound 0.08 µM) of the same compound?
The relative viability was 0.708.

What about the relative viability (NCI-H1563; first compound 0.253 µM) of the same compound?
Its relative viability is 0.567.

What about the relative viability (NCI-H1563; first compound 0.8 µM) of the same compound?
The relative viability was 0.491.

What about the relative viability (NCI-H1563; first compound 2.53 µM) of the same compound?
Its relative viability is 0.491.

What about the relative viability (NCI-H1563; first compound 8 µM) of the same compound?
Its relative viability is 0.497.

What about the relative viability (NCI-H1734; first compound 0.08 µM) of the same compound?
Its relative viability is 0.195.

What about the relative viability (NCI-H1734; first compound 0.253 µM) of the same compound?
Its relative viability is 0.175.

And the relative viability (NCI-H1734; first compound 0.8 µM)?
The relative viability was 0.228.

And the relative viability (NCI-H1734; first compound 8 µM)?
The relative viability was 0.2.

And the relative viability (NCI-H1915; first compound 0.08 µM)?
Its relative viability is 0.968.

What about the relative viability (NCI-H1915; first compound 0.253 µM) of the same compound?
Its relative viability is 0.827.

And the relative viability (NCI-H1915; first compound 0.8 µM)?
Its relative viability is 0.911.

And the relative viability (NCI-H1915; first compound 2.53 µM)?
Its relative viability is 0.775.

What about the relative viability (NCI-H1915; first compound 8 µM) of the same compound?
The relative viability was 0.769.

What about the relative viability (NCI-H1993; first compound 0.08 µM) of the same compound?
Its relative viability is 0.628.

And the relative viability (NCI-H1993; first compound 0.253 µM)?
Its relative viability is 0.934.

And the relative viability (NCI-H1993; first compound 0.8 µM)?
Its relative viability is 0.778.

What about the relative viability (NCI-H1993; first compound 2.53 µM) of the same compound?
Its relative viability is 0.724.

And the relative viability (NCI-H1993; first compound 8 µM)?
The relative viability was 0.9.

What about the relative viability (NCI-H2009; first compound 0.08 µM) of the same compound?
The relative viability was 1.07.

And the relative viability (NCI-H2009; first compound 0.253 µM)?
Its relative viability is 1.1.

And the relative viability (NCI-H2009; first compound 0.8 µM)?
Its relative viability is 1.01.

And the relative viability (NCI-H2009; first compound 2.53 µM)?
The relative viability was 0.939.

And the relative viability (NCI-H2009; first compound 8 µM)?
The relative viability was 1.

What about the relative viability (NCI-H2023; first compound 0.08 µM) of the same compound?
Its relative viability is 0.58.

And the relative viability (NCI-H2023; first compound 0.253 µM)?
Its relative viability is 0.949.

And the relative viability (NCI-H2023; first compound 0.8 µM)?
The relative viability was 0.601.

What about the relative viability (NCI-H2023; first compound 2.53 µM) of the same compound?
Its relative viability is 0.856.

And the relative viability (NCI-H2023; first compound 8 µM)?
The relative viability was 0.499.

And the relative viability (NCI-H2085; first compound 0.08 µM)?
The relative viability was 0.408.

What about the relative viability (NCI-H2085; first compound 0.253 µM) of the same compound?
The relative viability was 0.526.

What about the relative viability (NCI-H2085; first compound 0.8 µM) of the same compound?
The relative viability was 0.39.

And the relative viability (NCI-H2085; first compound 2.53 µM)?
Its relative viability is 0.437.

What about the relative viability (NCI-H2085; first compound 8 µM) of the same compound?
The relative viability was 0.354.

And the relative viability (NCI-H2126; first compound 0.08 µM)?
The relative viability was 0.791.

And the relative viability (NCI-H2126; first compound 0.253 µM)?
The relative viability was 1.

What about the relative viability (NCI-H2126; first compound 0.8 µM) of the same compound?
Its relative viability is 0.963.

And the relative viability (NCI-H2126; first compound 2.53 µM)?
Its relative viability is 0.822.

What about the relative viability (NCI-H2126; first compound 8 µM) of the same compound?
The relative viability was 0.836.

What about the relative viability (NCI-H2347; first compound 0.08 µM) of the same compound?
Its relative viability is 0.529.

What about the relative viability (NCI-H2347; first compound 0.253 µM) of the same compound?
Its relative viability is 0.358.

What about the relative viability (NCI-H2347; first compound 0.8 µM) of the same compound?
The relative viability was 0.284.

And the relative viability (NCI-H2347; first compound 2.53 µM)?
Its relative viability is 0.461.

What about the relative viability (NCI-H2347; first compound 8 µM) of the same compound?
Its relative viability is 0.391.

What about the relative viability (NCI-H322M; first compound 0.08 µM) of the same compound?
The relative viability was 0.711.

And the relative viability (NCI-H322M; first compound 0.253 µM)?
Its relative viability is 0.824.

And the relative viability (NCI-H322M; first compound 0.8 µM)?
Its relative viability is 0.823.

And the relative viability (NCI-H322M; first compound 2.53 µM)?
Its relative viability is 0.769.

What about the relative viability (NCI-H322M; first compound 8 µM) of the same compound?
The relative viability was 0.849.

And the relative viability (NCI-H647; first compound 0.08 µM)?
The relative viability was 0.123.

What about the relative viability (NCI-H647; first compound 0.253 µM) of the same compound?
Its relative viability is 0.138.

What about the relative viability (NCI-H647; first compound 0.8 µM) of the same compound?
The relative viability was 0.259.

What about the relative viability (NCI-H647; first compound 2.53 µM) of the same compound?
The relative viability was 0.183.

What about the relative viability (NCI-H647; first compound 8 µM) of the same compound?
The relative viability was 0.161.

And the relative viability (NCI-H661; first compound 0.08 µM)?
The relative viability was 0.914.

What about the relative viability (NCI-H661; first compound 0.253 µM) of the same compound?
The relative viability was 0.939.

And the relative viability (NCI-H661; first compound 0.8 µM)?
The relative viability was 0.893.

What about the relative viability (NCI-H661; first compound 2.53 µM) of the same compound?
Its relative viability is 0.897.

And the relative viability (NCI-H661; first compound 8 µM)?
The relative viability was 0.891.

And the relative viability (NCI-H727; first compound 0.08 µM)?
Its relative viability is 0.289.

What about the relative viability (NCI-H727; first compound 0.253 µM) of the same compound?
Its relative viability is 0.449.

And the relative viability (NCI-H727; first compound 0.8 µM)?
The relative viability was 0.307.

What about the relative viability (NCI-H727; first compound 2.53 µM) of the same compound?
The relative viability was 0.536.

And the relative viability (NCI-H727; first compound 8 µM)?
The relative viability was 0.382.

And the relative viability (PC-14; first compound 0.08 µM)?
Its relative viability is 0.155.

And the relative viability (PC-14; first compound 0.253 µM)?
The relative viability was 0.15.

What about the relative viability (PC-14; first compound 0.8 µM) of the same compound?
Its relative viability is 0.165.

What about the relative viability (PC-14; first compound 2.53 µM) of the same compound?
Its relative viability is 0.168.

What about the relative viability (PC-14; first compound 8 µM) of the same compound?
The relative viability was 0.155.

And the relative viability (SK-LU-1; first compound 0.08 µM)?
Its relative viability is 0.192.

And the relative viability (SK-LU-1; first compound 0.253 µM)?
The relative viability was 0.186.

What about the relative viability (SK-LU-1; first compound 0.8 µM) of the same compound?
The relative viability was 0.209.

What about the relative viability (SK-LU-1; first compound 2.53 µM) of the same compound?
The relative viability was 0.178.

And the relative viability (SK-LU-1; first compound 8 µM)?
The relative viability was 0.183.

And the relative viability (SW 1573; first compound 0.08 µM)?
Its relative viability is 0.213.

What about the relative viability (SW 1573; first compound 0.253 µM) of the same compound?
Its relative viability is 0.18.

What about the relative viability (SW 1573; first compound 0.8 µM) of the same compound?
The relative viability was 0.495.

What about the relative viability (SW 1573; first compound 2.53 µM) of the same compound?
Its relative viability is 0.194.

And the relative viability (SW 1573; first compound 8 µM)?
Its relative viability is 0.237.
